{
  "source": "patent US6355799B1",
  "about": "“Substituted benzene compounds, process for their preparation, and herbicidal and defoliant compositions containing them” (ISK Americas Incorporated, priority 1997, dated 2002)",
  "format_in_all_cases": "in vivo",
  "key": {"[1]": {"system": "redroot pigweed (Amaranthus retroflexus, AMARE)", "experiment": "Pre-emerge test, greenhouse herbicide activity screening", "settings": "phytotoxicity rating 0-100, 14 days after application", "procedure,_shortened": "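Visual ratings on a 0-100 scale (0 no damage, 100 all plants dead) were taken at 14 days after treatment. Rates of 15-1000 g ai/ha in acetone, 187 l/ha, were sprayed onto soil one day after planting (pre-emerge) or onto 2-3 leaf plants with 0.25% v/v surfactant (post-emerge).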"}, "[2]": {"system": "johnsongrass (Sorghum halepense, SORHA)", "experiment": "Pre-emerge test, greenhouse herbicide activity screening", "settings": "phytotoxicity rating 0-100, 14 days after application", "procedure,_shortened": "(§1)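 Plants grown in 10 cm pots of sandy loam mix received acetone-dissolved compounds through a moving flat-fan nozzle. Doses ranged from 15 to 1000 g ai/ha. Pre-emerge pots were seeded one day earlier, post-emerge pots 8–21 days earlier. Fourteen days on, each pot was graded 0–100 for damage.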"}, "[3]": {"system": "green foxtail (Setaria viridis, SETVI)", "experiment": "Pre-emerge test, greenhouse herbicide activity screening", "settings": "phytotoxicity rating 0-100, 14 days after application", "procedure,_shortened": "as §1"}, "[4]": {"system": "ivyleaf morningglory (Ipomoea hederacea, IPOHE)", "experiment": "Pre-emerge test, greenhouse herbicide activity screening", "settings": "phytotoxicity rating 0-100, 14 days after application", "procedure,_shortened": "as §1"}, "[5]": {"system": "velvetleaf (Abutilon theophrasti, ABUTH)", "experiment": "Pre-emerge test, greenhouse herbicide activity screening", "settings": "phytotoxicity rating 0-100, 14 days after application", "procedure,_shortened": "as §1"}, "[6]": {"system": "large crabgrass (Digitaria sanguinalis, DIGSA)", "experiment": "Pre-emerge test, greenhouse herbicide activity screening", "settings": "phytotoxicity rating 0-100, 14 days after application", "procedure,_shortened": "as §1"}, "[7]": {"system": "lambsquarters (Chenopodium album, CHEAL)", "experiment": "Pre-emerge test, greenhouse herbicide activity screening", "settings": "phytotoxicity rating 0-100, 14 days after application", "procedure,_shortened": "as §1"}, "[8]": {"system": "barnyardgrass (Echinochloa crus-galli, ECHCG)", "experiment": "Pre-emerge test, greenhouse herbicide activity screening", "settings": "phytotoxicity rating 0-100, 14 days after application", "procedure,_shortened": "as §1"}, "[9]": {"system": "sicklepod (Cassia obtusifolia, CASOB)", "experiment": "Pre-emerge test, greenhouse herbicide activity screening", "settings": "phytotoxicity rating 0-100, 14 days after application", "procedure,_shortened": "as §1"}, "[10]": {"system": "field corn (Zea mays L., var. Dekalb 535, CORN)", "experiment": "Pre-emerge test, crop safety", "settings": "crop damage rating 0-100, 14 days after application", "procedure,_shortened": "as §1"}, "[11]": {"system": "upland rice (Oryza sp., var. Tebonnet, RICE)", "experiment": "Pre-emerge test, crop safety", "settings": "crop damage rating 0-100, 14 days after application", "procedure,_shortened": "as §1"}, "[12]": {"system": "redroot pigweed (Amaranthus retroflexus, AMARE)", "experiment": "Post-emerge test, greenhouse herbicide activity screening", "settings": "post-emerge, 14 days after application", "procedure,_shortened": "(§2)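 Sandy loam pots; pre-emerge: sown 1 d pre-spray, surface-watered after, then bottom-watered. Post-emerge: sown 8–21 d before, 2–3 leaf stage, + 0.25% v/v NIS, bottom-watered. Acetone, 187 l/ha track spray, 15–1000 g ai/ha. 0–100 injury score, day 14.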"}, "[13]": {"system": "johnsongrass (Sorghum halepense, SORHA)", "experiment": "Post-emerge test, greenhouse herbicide activity screening", "settings": "post-emerge, 14 days after application, rating scale 0-100", "procedure,_shortened": "as §2"}, "[14]": {"system": "green foxtail (Setaria viridis, SETVI)", "experiment": "Post-emerge test, greenhouse herbicide activity screening", "settings": "post-emerge, 14 days after application, rating scale 0-100", "procedure,_shortened": "as §2"}, "[15]": {"system": "ivyleaf morningglory (Ipomoea hederacea, IPOHE)", "experiment": "Post-emerge test, greenhouse herbicide activity screening", "settings": "post-emerge, 14 days after application, rating scale 0-100", "procedure,_shortened": "as §2"}, "[16]": {"system": "velvetleaf (Abutilon theophrasti, ABUTH)", "experiment": "Post-emerge test, greenhouse herbicide activity screening", "settings": "post-emerge, 14 days after application, rating scale 0-100", "procedure,_shortened": "as §2"}, "[17]": {"system": "large crabgrass (Digitaria sanguinalis, DIGSA)", "experiment": "Post-emerge test, greenhouse herbicide activity screening", "settings": "post-emerge, 14 days after application, rating scale 0-100", "procedure,_shortened": "as §2"}, "[18]": {"system": "lambsquarters (Chenopodium album, CHEAL)", "experiment": "Post-emerge test, greenhouse herbicide activity screening", "settings": "post-emerge, 14 days after application, rating scale 0-100", "procedure,_shortened": "as §2"}, "[19]": {"system": "barnyardgrass (Echinochloa crus-galli, ECHCG)", "experiment": "Post-emerge test, greenhouse herbicide activity screening", "settings": "post-emerge, 14 days after application, rating scale 0-100", "procedure,_shortened": "as §2"}, "[20]": {"system": "sicklepod (Cassia obtusifolia, CASOB)", "experiment": "Post-emerge test, greenhouse herbicide activity screening", "settings": "post-emerge, 14 days after application, rating scale 0-100", "procedure,_shortened": "as §2"}, "[21]": {"system": "field corn (Zea mays L., var. Dekalb 535, CORN)", "experiment": "Post-emerge test, crop safety", "settings": "post-emerge, 14 days after application, rating scale 0-100", "procedure,_shortened": "(§3)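 Each test used a mechanized track sprayer delivering 187 l/ha of acetone solution at 15–1000 g ai/ha. Post-emerge foliage at 2–3 leaves was treated with added 0.25% v/v non-ionic surfactant and bottom-watered only. Injury was assessed on day 14, where 100 means total kill.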"}, "[22]": {"system": "upland rice (Oryza sp., var. Tebonnet, RICE)", "experiment": "Post-emerge test, crop safety", "settings": "post-emerge, 14 days after application, rating scale 0-100", "procedure,_shortened": "as §3"}},
  "data": [
    {"smiles": "Cn1c(C(F)(F)F)cc(=O)n(-c2c(F)cc(Cl)c(Oc3ncccc3[N+](=O)[O-])c2NC(=O)c2ccc3ccccc3c2)c1=O", "note": "[2-199]", "values": [
      {"measurement": "Pre-emerge Herbicidal Activity AMARE", "setting": "[1]; 63 g ai/ha", "value": 100},
      {"measurement": "Pre-emerge Herbicidal Activity AMARE", "setting": "[1]; 250 g ai/ha", "value": 100},
      {"measurement": "Pre-emerge Herbicidal Activity SORHA", "setting": "[2]; 63 g ai/ha", "value": 100},
      {"measurement": "Pre-emerge Herbicidal Activity SORHA", "setting": "[2]; 250 g ai/ha", "value": 100},
      {"measurement": "Pre-emerge Herbicidal Activity SETVI", "setting": "[3]; 63 g ai/ha", "value": 100},
      {"measurement": "Pre-emerge Herbicidal Activity SETVI", "setting": "[3]; 250 g ai/ha", "value": 100},
      {"measurement": "Pre-emerge Herbicidal Activity IPOHE", "setting": "[4]; 63 g ai/ha", "value": 100},
      {"measurement": "Pre-emerge Herbicidal Activity IPOHE", "setting": "[4]; 250 g ai/ha", "value": 100},
      {"measurement": "Pre-emerge Herbicidal Activity ABUTH", "setting": "[5]; 63 g ai/ha", "value": 100},
      {"measurement": "Pre-emerge Herbicidal Activity ABUTH", "setting": "[5]; 250 g ai/ha", "value": 100},
      {"measurement": "Pre-emerge Herbicidal Activity DIGSA", "setting": "[6]; 63 g ai/ha", "value": 100},
      {"measurement": "Pre-emerge Herbicidal Activity DIGSA", "setting": "[6]; 250 g ai/ha", "value": 100},
      {"measurement": "Pre-emerge Herbicidal Activity CHEAL", "setting": "[7]; 63 g ai/ha", "value": 100},
      {"measurement": "Pre-emerge Herbicidal Activity CHEAL", "setting": "[7]; 250 g ai/ha", "value": 100},
      {"measurement": "Pre-emerge Herbicidal Activity ECHCG", "setting": "[8]; 63 g ai/ha", "value": 99},
      {"measurement": "Pre-emerge Herbicidal Activity ECHCG", "setting": "[8]; 250 g ai/ha", "value": 100},
      {"measurement": "Pre-emerge Herbicidal Activity CASOB", "setting": "[9]; 63 g ai/ha", "value": 100},
      {"measurement": "Pre-emerge Herbicidal Activity CASOB", "setting": "[9]; 250 g ai/ha", "value": 100},
      {"measurement": "Pre-emerge Herbicidal Activity CORN", "setting": "[10]; 63 g ai/ha", "value": 95},
      {"measurement": "Pre-emerge Herbicidal Activity CORN", "setting": "[10]; 250 g ai/ha", "value": 100},
      {"measurement": "Pre-emerge Herbicidal Activity RICE", "setting": "[11]; 63 g ai/ha", "value": 99},
      {"measurement": "Pre-emerge Herbicidal Activity RICE", "setting": "[11]; 250 g ai/ha", "value": 100},
      {"measurement": "phytotoxicity rating AMARE", "setting": "[12]; 63 g ai/ha, rating scale 0-100 (0 no damage, 100 complete death)", "value": 95},
      {"measurement": "phytotoxicity rating AMARE", "setting": "[12]; 250 g ai/ha, rating scale 0-100", "value": 100},
      {"measurement": "phytotoxicity rating SORHA", "setting": "[13]; 63 g ai/ha", "value": 40},
      {"measurement": "phytotoxicity rating SORHA", "setting": "[13]; 250 g ai/ha", "value": 95},
      {"measurement": "phytotoxicity rating SETVI", "setting": "[14]; 63 g ai/ha", "value": 50},
      {"measurement": "phytotoxicity rating SETVI", "setting": "[14]; 250 g ai/ha", "value": 90},
      {"measurement": "phytotoxicity rating IPOHE", "setting": "[15]; 63 g ai/ha", "value": 100},
      {"measurement": "phytotoxicity rating IPOHE", "setting": "[15]; 250 g ai/ha", "value": 100},
      {"measurement": "phytotoxicity rating ABUTH", "setting": "[16]; 63 g ai/ha", "value": 100},
      {"measurement": "phytotoxicity rating ABUTH", "setting": "[16]; 250 g ai/ha", "value": 100},
      {"measurement": "phytotoxicity rating DIGSA", "setting": "[17]; 63 g ai/ha", "value": 30},
      {"measurement": "phytotoxicity rating DIGSA", "setting": "[17]; 250 g ai/ha", "value": 95},
      {"measurement": "phytotoxicity rating CHEAL", "setting": "[18]; 63 g ai/ha", "value": 100},
      {"measurement": "phytotoxicity rating CHEAL", "setting": "[18]; 250 g ai/ha", "value": 100},
      {"measurement": "phytotoxicity rating ECHCG", "setting": "[19]; 63 g ai/ha", "value": 60},
      {"measurement": "phytotoxicity rating ECHCG", "setting": "[19]; 250 g ai/ha", "value": 100},
      {"measurement": "phytotoxicity rating CASOB", "setting": "[20]; 63 g ai/ha", "value": 100},
      {"measurement": "phytotoxicity rating CASOB", "setting": "[20]; 250 g ai/ha", "value": 100},
      {"measurement": "phytotoxicity rating CORN (crop damage)", "setting": "[21]; 63 g ai/ha", "value": 30},
      {"measurement": "phytotoxicity rating CORN (crop damage)", "setting": "[21]; 250 g ai/ha", "value": 90},
      {"measurement": "phytotoxicity rating RICE (crop damage)", "setting": "[22]; 63 g ai/ha", "value": 80},
      {"measurement": "phytotoxicity rating RICE (crop damage)", "setting": "[22]; 250 g ai/ha", "value": 90}
    ]}
  ]
}
